Assay results from patent US20040121008A1, “Process for producing sustained release preparation” (priority 2001, published 2004).

Test: Increase in solubility of Compound A in dichloromethane/methanol by addition of metal compound
Format: physicochemical
Settings: solvent dichloromethane/methanol=7/3
Excerpt: Increase in solubility of poorly water-soluble nonpeptidic physiologically active compound by addition of metal compound
An amount of a solvent (dichloromethane/methanol=7/3) which can dissolve 0.1 g of 2-ethoxy-1-[[2′-(1H-tetrazol-5-yl)biphenyl-4-yl]methyl]benzimidazole-7-carboxylic acid (hereinafter, abbreviated as Compound A) is shown in Table 1.

For `CCOc1nc2cccc(C(=O)O)c2n1Cc1ccc(-c2ccccc2-c2nnn[nH]2)cc1` [Compound A, 2-ethoxy-1-[[2′-(1H-tetrazol-5-yl)biphenyl-4-yl]methyl]benzimidazole-7-carboxylic acid], which “Amount of solvent which can dissolve 0.1 g of Compound A” value (“Amount” for short) (magnesium acetate tetrahydrate 48.7 mg added) is on record?
Its value is 0.5 mL.

What about the “Amount” value (no metal compound added) of the same compound?
Its value is 3 mL.

And the “Amount” value (zinc acetate dihydrate 49.8 mg added)?
The value was 0.5 mL.
